In data set [1] the test system is Streptococcus faecalis (BCM-010). Nature of the data set: MIC by microdilution in microtiter plate, BCM-010. Type of data set: cell-based. The conditions noted are these: incubation 24 h at 35° C.; for MIC: Enterococcus faecalis. The procedure: (§1) In order to assess the antimicrobial activity of the compounds of the present invention a method of microdilution in microtiter plate was used. The compounds were diluted in a nutritious medium and, subsequently, distributed by two-fold serial dilutions in 96 well plates. Then, plates were inoculated with a bacterial suspension. After incubation for 24 h at 35° C. the minimum inhibitory concentration (MIC) of the drug in […] was determined as the lowest concentration of compound which inhibits the growth of the bacterium. Results included in Table 1 illustrate the antimicrobial activity of some of the compounds of the present invention in comparison with thus obtained with two compounds (linezolid and eperezolid) of a known antimicrobial activity. The antimicrobial activity of the compound versus Streptococcus faecalis (BCM-010, strain designation as for SALVAT collection) Staphylococcus aureus (BCM-012, strain designation as for SALVAT collection) and Moraxella catarrhalis (BCM-015, strain designation as for SALVAT collection), respectively, is shown in the different columns.

Data set [2] relates to Staphylococcus aureus (BCM-012). Nature of the data set: MIC by microdilution in microtiter plate, BCM-012. Format: cell-based. The conditions noted are these: incubation 24 h at 35° C. As to the method: as §1
(Broth dilution looks for growth in wells or tubes with falling amounts of substance.)

For data set [3], the system named is Moraxella catarrhalis (BCM-015). Kind of data set: MIC by microdilution in microtiter plate, BCM-015. Type of data set: cell-based. The conditions noted are these: incubation 24 h at 35° C. The procedure:
as §1

The subject of data set [4] is HCT-116. Kind of data set: cells. Format: cell-based, human. Particulars: for viability at 100 µM: Homo sapiens, HCT-116, read-out: Cell viability percentage at 100 μM HCT-116. As to the method: (§2) Antitumoral activity of the compounds of the present invention was evaluated by determining in vitro cell growth inhibition of 2 human colon adenocarcinome cell lines. The SBR (Sulphorhodamine B) protein dye assay described by the NCI (National Cancer Institute) was used. Results of Table 2 illustrate the antiproliferative activity of some of the compounds of the present invention versus the one obtained with exisulind (sulindac sulfone).

Data set [5] has as its system HT-29. Kind of data set: cells. Type of data set: cell-based, human. Particulars: for viability at 100 µM: Homo sapiens, HT-29, read-out: Cell viability percentage at 100 μM HT-29. The procedure:
as §2

Data on 25 molecules can be found in US20050014806A1, “Substituted isoxazoles and their use as antibiotics” (priority 2001, published 2005).

Converted amounts (≈) assume the structure as drawn.

As usually defined, the MIC is the lowest concentration that inhibits growth of the organism. Low readings indicate inhibition by little substance, high ones a need for much substance. Broadly, the viability is the share of living cells, or the viability signal relative to a control.

As for `N#C/C=C/c1cn(-c2ccc(-c3cc(CNc4ccon4)on3)cc2F)cn1` [Example 28], the MIC in data set [1] amounted to 1 µg/mL (≈ 2.66 µM); in data set [2], 0.5 µg/mL (≈ 1.33 µM); in data set [3], 4 µg/mL (≈ 10.6 µM). The viability at 100 µM in data set [4] worked out at 64.7%; in data set [5] it was 71.2%.

In the case of `O=C(c1cccnc1)N1CCN(c2ccc(-c3cc(CNc4ccon4)on3)cc2F)CC1` [Example 9, 3-[3-fluoro-4-(3-pyridylcarbonyl)piperazin-1-ylphenyl]-5-(isoxazol-3-ylaminomethyl)isoxazole], the figures for the MIC in data set [1], in data set [2] and in data set [3] were 4 µg/mL (≈ 8.92 µM), 2 µg/mL (≈ 4.46 µM) and above 16 µg/mL, respectively.

`O=C(COc1ccc2ncccc2c1)N1CCN(c2ccc(-c3cc(CNc4ccon4)on3)cc2F)CC1` [Example 22, 1-(4-{2-fluoro-4-[5-(isoxazol-3-ylaminomethyl)-isoxazol-3-yl]-phenyl}piperazin-1-yl)-2(quinolin-6-yloxy)ethanone]: the minimum inhibitory concentration (MIC) in data set [1] amounted to 1 µg/mL (≈ 1.89 µM); in data set [2], 0.5 µg/mL (≈ 0.946 µM); in data set [3], 4 µg/mL (≈ 7.57 µM).

In the case of `Cc1cn(-c2ccc(-c3cc(CNc4ccon4)on3)cc2F)cn1` [Example 38], the figures for the viability at 100 µM in data set [4] and in data set [5] were 48.6% and 53.3%, respectively.

For the molecule `OCc1ccn(-c2ccc(-c3cc(CNc4ccon4)on3)cc2F)c1` [Example 23, (1-{2-fluoro-4-[5-(isoxazol-3-ylaminomethyl)-isoxazol-3-yl]phenyl}-1H-pyrrol-3-yl)methanol], the MIC amounted to 1 µg/mL (≈ 2.82 µM) in data set [1], 0.5 µg/mL (≈ 1.41 µM) in data set [2] and 4 µg/mL (≈ 11.3 µM) in data set [3].

Turning to `O/N=C\c1ccn(-c2ccc(-c3cc(CNc4ccon4)on3)cc2F)c1` [Example 24], the minimal inhibitory concentration (MIC) in data set [1] was found to be 0.5 µg/mL (≈ 1.36 µM); in data set [2], 0.5 µg/mL (≈ 1.36 µM); in data set [3] it was 16 µg/mL (≈ 43.6 µM).

As to `CC(=O)NC[C@H]1CN(c2ccc(N3CCN(C(=O)CO)CC3)c(F)c2)C(=O)O1` [Eperezolid, eperezolid, reference compound], the MIC in data set [1] came to 4 µg/mL (≈ 10.1 µM); in data set [2] it was 2 µg/mL (≈ 5.07 µM); in data set [3] it was 8 µg/mL (≈ 20.3 µM).

In the case of `CC(=O)NC[C@H]1CN(c2ccc(N3CCOCC3)c(F)c2)C(=O)O1` [Linezolid, linezolid, reference compound], the MIC in data set [1] was 4 µg/mL (≈ 11.9 µM); in data set [2] it was 2 µg/mL (≈ 5.93 µM); in data set [3], 4 µg/mL (≈ 11.9 µM).

Regarding `O=Cc1cn(-c2ccc(-c3cc(CNc4ccon4)on3)cc2F)cn1` [Example 27, 1-{2-fluoro-4-[5-(isoxazol-3-ylaminomethyl)isoxazol-3-yl]phenyl}-1H-imidazol-4-carboxaldehyde], the MIC worked out at 2 µg/mL (≈ 5.66 µM) in data set [1], 0.5 µg/mL (≈ 1.42 µM) in data set [2] and 4 µg/mL (≈ 11.3 µM) in data set [3].

As for `O=Cc1ccn(-c2ccc(-c3cc(CNc4ccon4)on3)cc2F)c1` [Example 5], the MIC in data set [1] worked out at 1 µg/mL (≈ 2.84 µM); in data set [2], 1 µg/mL (≈ 2.84 µM); in data set [3], 8 µg/mL (≈ 22.7 µM).

In the case of “sulindac sulfone [Exisulind, reference compound]”, the “Cell viability percentage at 100 μM HCT-116” value in data set [4] worked out at 44.1%. For the same molecule, in data set [5], the “Cell viability percentage at 100 μM HT-29” value was 38.1%.

`O=C(CO)N1CCN(c2ccc(-c3cc(CNc4ccon4)on3)cc2F)CC1` [Example 1, 3-[3-fluoro-4-(hydroxyacetyl)piperazin-1-ylyhenyl]-5-(isoxazol-3-ylaminomethyl)isoxazole]: the MIC in data set [1] is 4 µg/mL (≈ 9.97 µM); in data set [2], 2 µg/mL (≈ 4.98 µM); in data set [3], 8 µg/mL (≈ 19.9 µM).

Consider `O=C(Cn1cccn1)N1CCN(c2ccc(-c3cc(CNc4ccon4)on3)cc2F)CC1` [Example 6], for which the MIC was 4 µg/mL (≈ 8.86 µM) in data set [1], 2 µg/mL (≈ 4.43 µM) in data set [2] and above 16 µg/mL in data set [3].

On to `O=Cc1ccc(OCC(=O)N2CCN(c3c(F)cc(-c4cc(CNc5ccon5)on4)cc3F)CC2)cc1` [Example 26, 4-[2-(4-{2,6-difluoro-4-[5-(isoxazol-3-ylaminomethyl)isoxazol-3-yl]phenyl}piperazin-1-yl)-2-oxoethoxy]benzaldehyde], for which the MIC was determined as 1 µg/mL (≈ 1.91 µM) in data set [1], 0.5 µg/mL (≈ 0.955 µM) in data set [2] and 4 µg/mL (≈ 7.64 µM) in data set [3].

As to `N#C/C=C/c1ccn(-c2ccc(-c3cc(CNc4ccon4)on3)cc2F)c1` [Example 36], the viability at 100 µM in data set [4] was 77.1%; in data set [5], 14.3%.

Consider `Cc1cn(-c2ccc(-c3cc(CNc4cc(C)ns4)on3)cc2F)cn1` [Example 34, {3-[3-fluoro-4-(4-methylimidazolyl)phenyl]isoxazol-5-ylmethyl}-(3-methyl-isothiazol-5-yl)amine], for which the MIC in data set [1] worked out at 1 µg/mL (≈ 2.71 µM); in data set [2], 1 µg/mL (≈ 2.71 µM); in data set [3], 4 µg/mL (≈ 10.8 µM).

Regarding `Cc1ccccc1NCc1ccn(-c2ccc(-c3cc(CNc4ccon4)on3)cc2F)c1` [Example 30, (3-{3-fluoro-4-[3-(o-tolylaminomethyl)pyrrol-1-yl]phenyl}isoxazol-5-ylmethyl)isoxazol-3-ylamine], the MIC in data set [1] amounted to 1 µg/mL (≈ 2.25 µM); in data set [2], 0.5 µg/mL (≈ 1.13 µM); in data set [3] it was 16 µg/mL (≈ 36.1 µM).

`O=C(Cn1cccc1)N1CCN(c2ccc(-c3cc(CNc4ccon4)on3)cc2F)CC1` [Example 10, 3-[3-fluoro-4-(4-(1-pyrrolyl)acetyl)piperazin-1-ylphenyl]-5-(isoxazol-3-ylaminomethyl)isoxazole]: the values for the MIC in data set [1], in data set [2] and in data set [3] were 4 µg/mL (≈ 8.88 µM), 2 µg/mL (≈ 4.44 µM) and above 16 µg/mL, respectively.

In the case of `COc1ccccc1NCc1cn(-c2ccc(-c3cc(CNc4ccon4)on3)cc2F)cn1` [Example 29, [3-(3-fluoro-4-{4-[(2-methoxiphenylamino)-methyl]imidazol-1-yl}phenyl)isoxazol-5-ylmethyl]isoxazol-3-ylamine], the MIC in data set [1] was 1 µg/mL (≈ 2.17 µM); in data set [2], 0.5 µg/mL (≈ 1.09 µM); in data set [3] it was 4 µg/mL (≈ 8.69 µM).

As to `Cc1cc(NCc2cc(-c3ccc(-n4ccc(/C=C/C#N)c4)c(F)c3)no2)sn1` [Example 37], the values for the viability at 100 µM in data set [4] and in data set [5] were 18.9% and below 5%, respectively.

“1-(2-fluoro-4-{5-[(3-methylisotiazol-5-ylamino)-methyl]isoxazol-3-yl}phenyl)-1H-imidazol-4-carboxaldehyde [Example 33]”: in data set [1], the “BCM-010 MIC” value came to 2 µg/mL. Besides, the “BCM-012 MIC” value in data set [2] was 0.5 µg/mL. In data set [3], the “BCM-015 MIC” value is 4 µg/mL.

In the case of `N#Cc1ccn(-c2ccc(-c3cc(CNc4ccon4)on3)cc2F)c1` [Example 25], the MIC in data set [1] worked out at 0.5 µg/mL (≈ 1.43 µM); in data set [2], 0.5 µg/mL (≈ 1.43 µM); in data set [3], 16 µg/mL (≈ 45.8 µM).

As for `C#CCOCC(=O)N1CCN(c2ccc(-c3cc(CNc4ccon4)on3)cc2F)CC1` [Example 18, 3-[3-fluoro-4-(3-propyn-1-yloxyacetyl)piperazin-1-ylphenyl]-5-(isoxazol-3-ylaminomethyl)isoxazole], the results for the minimum inhibitory concentration (MIC) in data set [1] and in data set [2] were 4 µg/mL (≈ 9.1 µM) and 2 µg/mL (≈ 4.55 µM), respectively.

In the case of `OCc1cn(-c2ccc(-c3cc(CNc4ccon4)on3)cc2F)cn1` [Example 4], the figures for the MIC in data set [1] and in data set [2] were 4 µg/mL (≈ 11.3 µM) and 2 µg/mL (≈ 5.63 µM), respectively. The viability at 100 µM in data set [4] came to 57.1%; in data set [5], 66.1%.

For `O=C(COc1ccc(/C=N\O)cc1)N1CCN(c2c(F)cc(-c3cc(CNc4ccon4)on3)cc2F)CC1` [Example 31, 4-[2-(4-{2,6-difluoro-4-[5-(isoxazol-3]aminomethyl)isoxazol-3-yl-penyl}-piperazin-1-yl)2-oxoethoxy]-benzaldoxime], the MIC in data set [1] was found to be 1 µg/mL (≈ 1.86 µM); in data set [2], 0.5 µg/mL (≈ 0.928 µM).
